Legend:
Assay type in all cases: functional, organism-based
[1] = test system: Plasmodium falciparum; assay: Antimalarial activity against multidrug-resistant Plasmodium falciparum TM91C235 assessed as inhibition of [3H]hypoxanthine incorporation after 96 hrs by microtiter plate scintillation counting
[2] = test system: Plasmodium falciparum; assay: Antimalarial activity against chloroquine-sensitive Plasmodium falciparum D6 assessed as inhibition of [3H]hypoxanthine incorporation after 96 hrs by microtiter plate scintillation counting
[3] = test system: Plasmodium falciparum; assay: Antimalarial activity against chloroquine-,pyrimethamine-resistant Plasmodium falciparum W2 assessed as inhibition of [3H]hypoxanthine incorporation after 96 hrs by microtiter plate scintillation counting

Row | Compound | IC50 [1] [µM] | IC50 [2] [µM] | IC50 [3] [µM]
1 | CC[C@H]1OC(=O)[C@H](C)[C@@H](O[C@H]2C[C@@](C)(OC)[C@@H](O)[C@H](C)O2)[C@H](C)[C@@H](O[C@@H]2O[C@H](C)C[C@H](N(C)C)[C@H]2O)[C@](C)(O)C[C@@H](C)CN(CCCNC(=S)NC(C)C)[C@H](C)[C@@H](O)[C@]1(C)O | 0.428 | 2.61 | 1.3
2 | CCC(C)NC(=O)NCCCN1C[C@H](C)C[C@@](C)(O)[C@H](O[C@@H]2O[C@H](C)C[C@H](N(C)C)[C@H]2O)[C@@H](C)[C@H](O[C@H]2C[C@@](C)(OC)[C@@H](O)[C@H](C)O2)[C@@H](C)C(=O)O[C@H](CC)[C@@](C)(O)[C@H](O)[C@H]1C (stereo partly drawn) | 1.18 | 14 | 0.489
3 | CC[C@H]1OC(=O)[C@H](C)[C@@H](O[C@H]2C[C@@](C)(OC)[C@@H](O)[C@H](C)O2)[C@H](C)[C@@H](O[C@@H]2O[C@H](C)C[C@H](N(C)C)[C@H]2O)[C@](C)(O)C[C@@H](C)CN(CCCNC(=S)NCc2ccc3c(c2)OCO3)[C@H](C)[C@@H](O)[C@]1(C)O | 0.216 | 0.319 | 0.137
4 | CC[C@H]1OC(=O)[C@H](C)[C@@H](O[C@H]2C[C@@](C)(OC)[C@@H](O)[C@H](C)O2)[C@H](C)[C@@H](O[C@@H]2O[C@H](C)C[C@H](N(C)C)[C@H]2O)[C@](C)(O)C[C@@H](C)CN(CCCNC(=O)Nc2cc(C(=O)OC)cc(C(=O)OC)c2)[C@H](C)[C@@H](O)[C@]1(C)O | 0.411 | 0.648 | 0.12
5 | CC[C@H]1OC(=O)[C@H](C)[C@@H](O[C@H]2C[C@@](C)(OC)[C@@H](O)[C@H](C)O2)[C@H](C)[C@@H](O[C@@H]2O[C@H](C)C[C@H](N(C)C)[C@H]2O)[C@](C)(O)C[C@@H](C)CN(CCCNC(=O)Nc2ccc(OC)cc2)[C@H](C)[C@@H](O)[C@]1(C)O | 0.442 | 1.97 | 0.256
6 | CC[C@H]1OC(=O)[C@H](C)[C@@H](O[C@H]2C[C@@](C)(OC)[C@@H](O)[C@H](C)O2)[C@H](C)[C@@H](O[C@@H]2O[C@H](C)C[C@H](N(C)C)[C@H]2O)[C@](C)(O)C[C@@H](C)CN(CCCNC(=O)Nc2cc(F)ccc2C)[C@H](C)[C@@H](O)[C@]1(C)O | 0.117 | 0.396 | 0.0532

From ChEMBL document CHEMBL1681728, “An automated, polymer-assisted strategy for the preparation of urea and thiourea derivatives of 15-membered azalides as potential antimalarial chemotherapeutics” (Bioorg Med Chem, 2011)
